Test results: US20250059198A1, “BRM DEGRADING COMPOUNDS AND ASSOCIATED METHODS OF USE” (Arvinas Operations, Inc., priority 2021, published 2025)

Target: T1, BRM (Homo sapiens, UniProt P51531)
T1 construct: Western Blot Screen of BRM Degradation in SW1573 Cells; endogenous in cells; host or cells: SW1573 cells
Experiment: BRM degradation (Dmax and DC50) in SW1573 cells, Western blot screen / In-Cell Western screen
Type: cell-based
Settings: overnight (18-20 hours) treatment; for Dmax: read-out: Dmax (%)** (% degraded)
Summary of the method: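 SW1573 cells were treated with compound for 18–20 h (final 0.1% DMSO). BRM was quantified either by Western blot of RIPA lysates or by fixed-cell In-Cell Western (LI-COR, 800/680 nm), each normalised to alpha-tubulin, giving Dmax and DC50.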

T1 sequence (P51531 whole entry): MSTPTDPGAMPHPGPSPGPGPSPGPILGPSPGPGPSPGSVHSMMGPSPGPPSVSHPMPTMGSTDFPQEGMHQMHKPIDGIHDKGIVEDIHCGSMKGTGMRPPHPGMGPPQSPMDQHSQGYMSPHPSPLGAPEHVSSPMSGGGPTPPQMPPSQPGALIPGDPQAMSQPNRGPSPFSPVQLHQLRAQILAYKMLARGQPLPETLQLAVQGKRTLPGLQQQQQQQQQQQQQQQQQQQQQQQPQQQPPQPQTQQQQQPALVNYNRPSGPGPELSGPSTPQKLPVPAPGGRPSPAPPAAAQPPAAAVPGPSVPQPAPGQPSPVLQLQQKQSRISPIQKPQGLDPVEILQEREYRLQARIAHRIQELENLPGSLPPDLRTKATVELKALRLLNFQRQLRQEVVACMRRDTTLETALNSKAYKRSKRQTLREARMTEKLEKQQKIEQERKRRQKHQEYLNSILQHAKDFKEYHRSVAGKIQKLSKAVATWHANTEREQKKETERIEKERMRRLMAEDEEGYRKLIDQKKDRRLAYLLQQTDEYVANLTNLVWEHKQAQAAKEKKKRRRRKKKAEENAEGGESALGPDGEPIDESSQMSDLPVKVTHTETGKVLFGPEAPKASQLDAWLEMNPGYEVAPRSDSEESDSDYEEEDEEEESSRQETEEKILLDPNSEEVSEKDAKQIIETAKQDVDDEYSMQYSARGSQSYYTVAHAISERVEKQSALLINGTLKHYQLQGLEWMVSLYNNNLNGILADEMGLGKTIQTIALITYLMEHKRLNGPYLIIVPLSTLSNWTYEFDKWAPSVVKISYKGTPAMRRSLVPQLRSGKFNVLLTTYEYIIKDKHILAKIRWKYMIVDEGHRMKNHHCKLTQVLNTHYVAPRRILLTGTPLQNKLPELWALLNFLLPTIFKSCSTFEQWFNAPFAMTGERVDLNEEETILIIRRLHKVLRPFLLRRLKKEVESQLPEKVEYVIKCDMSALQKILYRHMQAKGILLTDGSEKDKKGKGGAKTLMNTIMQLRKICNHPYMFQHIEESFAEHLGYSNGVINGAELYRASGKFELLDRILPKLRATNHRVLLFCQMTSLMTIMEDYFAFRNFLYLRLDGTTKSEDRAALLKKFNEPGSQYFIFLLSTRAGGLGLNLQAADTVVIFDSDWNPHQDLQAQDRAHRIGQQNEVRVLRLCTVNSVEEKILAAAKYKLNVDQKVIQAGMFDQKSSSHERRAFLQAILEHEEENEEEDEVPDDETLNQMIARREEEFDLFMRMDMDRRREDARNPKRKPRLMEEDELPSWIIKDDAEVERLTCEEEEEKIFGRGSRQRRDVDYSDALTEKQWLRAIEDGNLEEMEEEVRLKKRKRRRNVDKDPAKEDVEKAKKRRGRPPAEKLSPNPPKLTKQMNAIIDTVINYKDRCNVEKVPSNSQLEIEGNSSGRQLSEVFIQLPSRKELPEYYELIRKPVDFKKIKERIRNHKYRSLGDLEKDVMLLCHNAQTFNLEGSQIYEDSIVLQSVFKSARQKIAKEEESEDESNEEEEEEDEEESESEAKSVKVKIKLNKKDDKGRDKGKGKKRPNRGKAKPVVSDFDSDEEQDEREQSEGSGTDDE

Compound	DC50	Dmax
Cc1ncsc1-c1ccc([C@H](C)NC(=O)[C@@H]2C[C@@H](O)CN2C(=O)[C@@H](c2cc(N3CCC(CN4CCC5(CC4)CC(C#CC(C)n4cc(-c6cc(-c7ccccc7O)nnc6N)cn4)C5)CC3)no2)C(C)C)cc1 (stereo partly drawn) [Compound 36, (2S,4R)-1-[(2R)-2-[3-(4-{[2-(3-{4-[3-amino-6-(2-hydroxyphenyl)pyridazin-4-yl]-1H-pyrazol-1-yl}but-1-yn-1-yl)-7-azaspiro[3.5]nonan-7-yl]methyl}piperidin-1-yl)-1,2-oxazol-5-yl]-3-methylbutanoyl]-4-hydroxy-N-[(1S)-1-[4-(4-methyl-1,3-thiazol-5-yl)phenyl]ethyl]pyrrolidine-2-carboxamide]	< 2.5 nM	> 75%
Cc1ncsc1-c1ccc([C@H](CC(=O)N2CCC(CN3CCC(O[C@H]4C[C@H](Oc5cc(N6C7CCC6CN(c6cc(-c8ccccc8O)nnc6N)C7)ccn5)C4)CC3)CC2)NC(=O)[C@@H]2C[C@@H](O)CN2C(=O)[C@@H](C(C)C)N2Cc3ccccc3C2=O)cc1 [Compound 37, (2S,4R)-4-hydroxy-N-[(1S)-1-[4-(4-methyl-1,3-thiazol-5-yl)phenyl]-3-oxo-3-[4-({4-[(1r,3r)-3-[(4-{3-[3-amino-6-(2-hydroxyphenyl)pyridazin-4-yl]-3,8-diazabicyclo[3.2.1]octan-8-yl}pyridin-2-yl)oxy]cyclobutoxy]piperidin-1-yl}methyl)piperidin-1-yl]propyl]-1-[(2R)-3-methyl-2-(1-oxo-2,3-dihydro-1H-isoindol-2-yl)butanoyl]pyrrolidine-2-carboxamide]	≥ 30 nM	–
Cc1ncsc1-c1ccc([C@H](CC(=O)N2CCC(CN3CCC(O[C@H]4C[C@H](Oc5cc(N6C7CCC6CN(c6cc(-c8ccccc8O)nnc6N)C7)ccn5)C4)CC3)CC2)NC(=O)[C@@H]2C[C@@H](O)CN2C(=O)[C@H](C(C)C)N2Cc3ccccc3C2=O)cc1 [Compound 38, (2S,4R)-4-hydroxy-N-[(1S)-1-[4-(4-methyl-1,3-thiazol-5-yl)phenyl]-3-oxo-3-[4-({4-[(1r,3r)-3-[(4-{3-[3-amino-6-(2-hydroxyphenyl)pyridazin-4-yl]-3,8-diazabicyclo[3.2.1]octan-8-yl}pyridin-2-yl)oxy]cyclobutoxy]piperidin-1-yl}methyl)piperidin-1-yl]propyl]-1-[(2S)-3-methyl-2-(1-oxo-2,3-dihydro-1H-isoindol-2-yl)butanoyl]pyrrolidine-2-carboxamide]	< 2.5 nM	> 75%
CC(C)[C@@H](C(=O)N1C[C@H](O)C[C@H]1C(=O)N[C@@H](C)c1ccc(-c2ccnn2C)cc1)c1cc(N2CCC(CN3CCC(CN4CCC5(CC4)CC(Oc4cc(N6C7CCC6CN(c6cc(-c8ccccc8O)nnc6N)C7)ccn4)C5)CC3)CC2)no1 [Compound 39, (2S,4R)-1-[(2R)-2-[3-(4-{[4-({2-[(4-{3-[3-amino-6-(2-hydroxyphenyl)pyridazin-4-yl]-3,8-diazabicyclo[3.2.1]octan-8-yl}pyridin-2-yl)oxy]-7-azaspiro[3.5]nonan-7-yl}methyl)piperidin-1-yl]methyl}piperidin-1-yl)-1,2-oxazol-5-yl]-3-methylbutanoyl]-4-hydroxy-N-[(1S)-1-[4-(1-methyl-1H-pyrazol-5-yl)phenyl]ethyl]pyrrolidine-2-carboxamide]	< 2.5 nM	> 75%
CC(C)[C@@H](C(=O)N1C[C@H](O)C[C@H]1C(=O)N[C@@H](C)c1ccc(-c2c(F)cnn2C)cc1)c1cc(N2CCC(CN3CCC(O[C@H]4C[C@H](Oc5cc(N6CCN(c7cc(-c8ccccc8O)nnc7N)CC6)ccn5)C4)CC3)CC2)no1 [Compound 40, (2S,4R)-N-[(1S)-1-[4-(4-fluoro-1-methyl-1H-pyrazol-5-yl)phenyl]ethyl]-4-hydroxy-1-[(2R)-3-methyl-2-{3-[4-({4-[(1r,3r)-3-[(4-{4-[3-amino-6-(2-hydroxyphenyl)pyridazin-4-yl]piperazin-1-yl}pyridin-2-yl)oxy]cyclobutoxy]piperidin-1-yl}methyl)piperidin-1-yl]-1,2-oxazol-5-yl}butanoyl]pyrrolidine-2-carboxamide]	< 2.5 nM	> 75%
CC(C)[C@@H](C(=O)N1C[C@H](O)C[C@H]1C(=O)N[C@@H](C)c1ccc(-c2ccnn2C)cc1)c1cc(N2CCC(CN3CCC(Oc4cc(N5CCN(c6cc(-c7ccccc7O)nnc6N)CC5)ccn4)CC3)CC2)no1 [Compound 41, (2S,4R)-1-[(2R)-2-{3-[4-({4-[(4-{4-[3-amino-6-(2-hydroxyphenyl)pyridazin-4-yl]piperazin-1-yl}pyridin-2-yl)oxy]piperidin-1-yl}methyl)piperidin-1-yl]-1,2-oxazol-5-yl}-3-methylbutanoyl]-4-hydroxy-N-[(1S)-1-[4-(1-methyl-1H-pyrazol-5-yl)phenyl]ethyl]pyrrolidine-2-carboxamide]	< 2.5 nM	> 75%
CC(C)[C@@H](C(=O)N1C[C@H](O)C[C@H]1C(=O)N[C@@H](C)c1ccc(-c2ccnn2C)cc1)c1cc(N2CCC(CN3CCC(O[C@H]4C[C@H](N5CCC(C(C)n6cc(C#Cc7cc(-c8ccccc8O)nnc7N)cn6)CC5)C4)CC3)CC2)no1 (stereo partly drawn) [Compound 42, (2S,4R)-4-hydroxy-N-[(1S)-1-[4-(1-methyl-1H-pyrazol-5-yl)phenyl]ethyl]-1-[(2R)-3-methyl-2-{3-[4-({4-[(1r,3r)-3-{4-[1-(4-{2-[3-amino-6-(2-hydroxyphenyl)pyridazin-4-yl]ethynyl}-1H-pyrazol-1-yl)ethyl]piperidin-1-yl}cyclobutoxy]piperidin-1-yl}methyl)piperidin-1-yl]-1,2-oxazol-5-yl}butanoyl]pyrrolidine-2-carboxamide]	< 2.5 nM	> 75%
Cc1ncsc1-c1ccc([C@H](C)NC(=O)[C@@H]2C[C@@H](O)CN2C(=O)[C@@H](c2cc(N3CCC(CN4CCC(N5CCC6(CC5)CC(Oc5cc(N7C8CCC7CN(c7cc(-c9ccccc9O)nnc7N)C8)ccn5)C6)CC4)CC3)no2)C(C)C)cc1 [Compound 43, (2S,4R)-1-[(2R)-2-(3-{4-[(4-{2-[(4-{3-[3-amino-6-(2-hydroxyphenyl)pyridazin-4-yl]-3,8-diazabicyclo[3.2.1]octan-8-yl}pyridin-2-yl)oxy]-7-azaspiro[3.5]nonan-7-yl}piperidin-1-yl)methyl]piperidin-1-yl}-1,2-oxazol-5-yl)-3-methylbutanoyl]-4-hydroxy-N-[(1S)-1-[4-(4-methyl-1,3-thiazol-5-yl)phenyl]ethyl]pyrrolidine-2-carboxamide]	< 2.5 nM	> 75%
Cc1ncsc1-c1ccc([C@H](C)NC(=O)[C@@H]2C[C@@H](O)CN2C(=O)[C@@H](c2cc(N3CCC(CN4CCC(O[C@H]5C[C@H](N6CCC7(CC6)CC(N6C8CCC6CN(c6cc(-c9ccccc9O)nnc6N)C8)C7)C5)CC4)CC3)no2)C(C)C)cc1 [Compound 44, (2S,4R)-4-hydroxy-N-[(1S)-1-[4-(4-methyl-1,3-thiazol-5-yl)phenyl]ethyl]-1-[(2R)-3-methyl-2-{3-[4-({4-[(1r,3r)-3-(2-{3-[3-amino-6-(2-hydroxyphenyl)pyridazin-4-yl]-3,8-diazabicyclo[3.2.1]octan-8-yl}-7-azaspiro[3.5]nonan-7-yl)cyclobutoxy]piperidin-1-yl}methyl)piperidin-1-yl]-1,2-oxazol-5-yl}butanoyl]pyrrolidine-2-carboxamide]	< 2.5 nM	> 75%
Cc1ncsc1-c1ccc([C@H](C)NC(=O)[C@H]2C[C@@H](O)CN2C(=O)[C@@H](c2cc(N3CCC(CN4CCC(O[C@H]5C[C@H](OC(=O)N6CCN(c7cc(-c8ccccc8O)nnc7N)CC6)C5)CC4)CC3)no2)C(C)C)cc1 [Compound 45, (1rs,3rs)-3-({1-[(1-{5-[(2R)-1-[(2S,4R)-4-hydroxy-2-{[(1S)-1-[4-(4-methyl-1,3-thiazol-5-yl)phenyl]ethyl]carbamoyl}pyrrolidin-1-yl]-3-methyl-1-oxobutan-2-yl]-1,2-oxazol-3-yl}piperidin-4-yl)methyl]piperidin-4-yl}oxy)cyclobutyl 4-[3-amino-6-(2-hydroxyphenyl)pyridazin-4-yl]piperazine-1-carboxylate]	< 2.5 nM	> 75%
CC(C)[C@H](C(=O)N1C[C@H](O)C[C@H]1C(=O)N[C@@H](C)c1ccc(Cl)cc1)c1cc(N2CCC(CN3CCC(O[C@H]4C[C@H](Oc5cc(N6C7CCC6CN(c6cc(-c8ccccc8O)nnc6N)C7)ccn5)C4)CC3)CC2)no1 [Compound 46, (2S,4R)-N-[(1S)-1-(4-chlorophenyl)ethyl]-4-hydroxy-1-[(2S)-3-methyl-2-{3-[4-({4-[(1r,3r)-3-[(4-{3-[3-amino-6-(2-hydroxyphenyl)pyridazin-4-yl]-3,8-diazabicyclo[3.2.1]octan-8-yl}pyridin-2-yl)oxy]cyclobutoxy]piperidin-1-yl}methyl)piperidin-1-yl]-1,2-oxazol-5-yl}butanoyl]pyrrolidine-2-carboxamide]	≥ 30 nM	–
Cc1ncsc1-c1ccc([C@H](C)NC(=O)[C@@H]2C[C@@H](O)CN2C(=O)[C@@H](c2cc(N3CCC(CN4CCC(O[C@H]5C[C@H](N6CCN(CC7C8CCC7CN(c7cc(-c9ccccc9O)nnc7N)C8)CC6)C5)CC4)CC3)no2)C(C)C)cc1 (stereo partly drawn) [Compound 47, (2S,4R)-4-hydroxy-N-[(1S)-1-[4-(4-methyl-1,3-thiazol-5-yl)phenyl]ethyl]-1-[(2R)-3-methyl-2-{3-[4-({4-[(1r,3r)-3-[4-({3-[3-amino-6-(2-hydroxyphenyl)pyridazin-4-yl]-3-azabicyclo[3.2.1]octan-8-yl}methyl)piperazin-1-yl]cyclobutoxy]piperidin-1-yl}methyl)piperidin-1-yl]-1,2-oxazol-5-yl}butanoyl]pyrrolidine-2-carboxamide]	2.5 to 10 nM	> 75%
